Patent US20240327423A1, “A SERIES OF PYRROLE DERIVATIVES AND THEIR PREPARATION METHOD AND THERAPEUTIC USE” (SHENZHEN SUNGENING BIO-MEDICAL CO., LTD, priority 2020, published 2024)
Values after ≈ are worked out from the molar mass of the structure shown.

Each compound was assayed on Aspergillus fumigatus (ATCC MYA-4609/AF293/CBS 101355) (assay: Measurement of minimum inhibitory concentration (MIC), AF293). Conditions: Aspergillus fumigatus AF293, 35° C., 48 hours, RPMI1640.
Format: cell-based
Procedure: New streaks are made with glycerol stock solution of the strains of Aspergillus fumigatus (ATCC MYA-4609/AF 293/CBS 101355) on Sabouraud's dextrose agar (SDA), incubate at 35° C. and a humidity of 40-70% for 72 hours. Other strains are processed as the same as AF293.
RPMI1640: one packet of RPMI1640 powder is dissolved in 1 L purified water and mixed well, add 0.165M MOPS, adjust the pH to 7.0, sterilize by filtration with 0.22 um membrane, and store at 4° C. for no more than 3 months.
Physiological saline: weigh 9 g of sodium chloride powder and dissolve in 1 L of purified water, and mixed well. Sterilize at 121° C. for 30 min, store at room temperature (RT) for no more than 1 week.
Dissolve the test compound and stock solution of one control compound with DMSO and obtain solutions at a concentration of 12.8 mg/mL
The maximum concentration of each compound is 0.8 mg/mL (e.g., 150 μL of dimethyl sulfoxide+10 uL of 12.8 mg/mL compound/control). Column 1 is filled with 40 μL of compound and columns 2 to 11 with 20 μL of dimethyl sulfoxide. Transfer 20 μL of compound from column 1 to column 2 to dilute the concentration. Repeat the above steps up to column 11 to give 2× serial dilutions.
2 μL of the above 2× serial dilutions are injected into each hole of the corresponding test plate using a multichannel pipette.
Drop 5 ml of saline on the Aspergillus fumigatus SDA plate. The spores were carefully wiped off from the surface of the plate with an L-shaped coating rod. Then the suspension is transferred into a sterile tube. After shaking, let the tube stand for 5 to 10 minutes. Count the number of spores in the upper suspension with a hemocytometer and check the purity. Adjust the inoculum concentration to 0.2-2.5×10^4 spores/mL.
Inject 198 μL of diluted inoculum into each holes of the corresponding test plate using a multichannel pipette.
Incubate at 35° C. for 48 hours.
To facilitate scoring of the presence or absence of growth on the wall, a magnifying glass is used. The tested 96-well microplates were photographed and the optical density at 530 nm is read with an enzyme marker (Tecan Spark).

Structure (SMILES)	AF293: MIC [µg/mL]
Cc1cc(-c2ccccc2)c(C(=O)C(=O)Nc2ccc3c(c2)CC2CN(c4ncc(F)cn4)CCCN32)n1C (centres unmarked) [2 (T-2-a), 2-(1,5-dimethyl-3-phenyl-1H-pyrrol-2-yl)-N-(2-(5-fluoropyrimidin-2-yl)-2,3,4,5,11,11a-hexahydro-1H-[1,4]diaza[1,2-a]indol-9-yl)-2-oxoacetamide]	0.06
Cc1cc(-c2ccccc2)c(C(=O)C(=O)Nc2ccc3c(c2)CC2CCN(c4ncc(F)cn4)CCN32)n1C (centres unmarked) [2 (T-2-b), 2-(1,5-dimethyl-3-phenyl-1H-pyrrol-2-yl)-N-(3-(5-fluoropyrimidin-2-yl)-2,3,4,5,11,11a-hexahydro-1H-[1,4]diaza[1,7-a]indol-9-yl)-2-oxoacetamide]	0.06
Cc1cc(-c2ccccc2)c(C(=O)C(=O)Nc2ccc3c(c2)OCC2CN(c4ncc(C#N)cn4)CCN32)n1C (centres unmarked) [Example 7, N-(3-(5-cyanopyrimidin-2-yl)-1,2,3,4,4a,5-hexahydrobenzo[b]pyrazino[1,2-d] [1,4]oxazin-8-yl)-2-(1,5-dimethyl-3-phenyl-1H-pyrrol-2-yl)-2-oxyacetamide]	0.06

More lines, now with the values ahead:

AF293: MIC [µg/mL]	Structure (SMILES)
1	Cc1cc(-c2ccccc2)c(C(=O)C(=O)Nc2ccc3c(c2)OCC2CN(c4ncn(C)n4)CCN32)n1C (centres unmarked) [Example 17]
0.03	Cc1cc(-c2ccccc2)c(C(=O)C(=O)Nc2ccc3c(c2)COCC2CN(c4ncc(F)cn4)CCN32)n1C (centres unmarked) [Example 18, 2-(1,5-dimethyl-3-phenyl-1H-pyrrol-2-yl)-N-(3-(5-fluoropyrimidin-2-yl)-1,2,3,4,4a,5-hexahydro-7H-benzo[e]pyrazino[2,1-c] [1,4]oxazolin-9-yl)-2-oxoacetamide]

Same assay, conditions: CBS101355; Aspergillus fumigatus AF293, 35° C., 48 hours, RPMI1640; read-out: AF293: MIC

Structure (SMILES)	MIC [µg/mL]
COc1cnc(N2CCN3c4ccc(NC(=O)C(=O)c5c(-c6ccccc6)cc(C)n5C)cc4OCC3C2)nc1 (centres unmarked) [Example 8]	0.03 (≈ 0.0557 µM)
Cc1cc(-c2ccccc2)c(C(=O)C(=O)Nc2ccc3c(c2)OCC2CN(c4nccc(Cl)n4)CCN32)n1C (centres unmarked) [Example 10]	0.06 (≈ 0.11 µM)
Cc1cc(-c2ccccc2)c(C(=O)C(=O)Nc2ccc3c(c2)OCC2CN(c4ccnc(Cl)n4)CCN32)n1C (centres unmarked) [Example 11]	0.5 (≈ 0.921 µM)
Cc1cc(-c2ccccc2)c(C(=O)C(=O)Nc2ccc3c(c2)OCC2CN(c4ncc(C#N)s4)CCN32)n1C (centres unmarked) [Example 12]	0.13 (≈ 0.241 µM)

Continued, values first:

MIC [µg/mL]	Structure (SMILES)
0.25 (≈ 0.475 µM)	Cc1cc(-c2ccccc2)c(C(=O)C(=O)Nc2ccc3c(c2)OCC2CN(c4ccc(F)nn4)CCN32)n1C (centres unmarked) [Example 13]
0.06 (≈ 0.114 µM)	Cc1cc(-c2ccccc2)c(C(=O)C(=O)Nc2ccc3c(c2)OCC2CN(c4ccc(F)cn4)CCN32)n1C (centres unmarked) [Example 14]
0.13 (≈ 0.246 µM)	Cc1cc(-c2ccccc2)c(C(=O)C(=O)Nc2cnc3c(c2)OCC2CN(c4ncc(F)cn4)CCN32)n1C (centres unmarked) [Example 22, 2-(1,5-dimethyl-3-phenyl-1H-pyrrol-2-yl)-N-(8-(5-fluoropyrimidin-2-yl)-6,6a,7,8,9,10-hexahydropyrazino[1,2-d]pyrido[3,2-b] [1,4]oxazin-3-yl)-2-oxoacetamide]
0.13 (≈ 0.231 µM)	Cc1cc(-c2ccccc2)c(C(=O)C(=O)Nc2ccc3c(c2)OC[C@H]2CN(c4ncc(N5CCC5)cn4)CCN32)n1C [Example 23, (R)—N-(3-(5-(azetidin-1-yl)pyrimidin-2-yl)-1,2,3,4,4a,5-hexahydrobenzo[b]pyrazino[1,2-d] [1,4]oxazin-8-yl)-2-(1,5-dimethyl-3-phenyl-1H-pyrrol-2-yl)-2-oxoacetamide]
0.13 (≈ 0.219 µM)	Cc1cc(-c2ccccc2)c(C(=O)C(=O)Nc2ccc3c(c2)OC[C@H]2CN(c4ncc(N5CCOCC5)cn4)CCN32)n1C [Example 24, (R)-2-(1,5-dimethyl-3-phenyl-1H-pyrrol-2-yl)-N-(3-(5-morpholinopyrimidin-2-yl)-1,2,3,4,4a,5-hexahydrobenzo[b]pyrazino[1,2-d] [1,4]oxazin-8-yl)-2-oxoacetamide]
